Measured values taken from patent publication US20090118332A1, “Therapeutic Agents - 551” (AstraZeneca AB, priority 2006, published 2009).

Biological target: T1, human Fatty Acid Synthase (Homo sapiens, UniProt P49327)
T1 construct: made in house
Test: Human FAS enzyme assay (decrease in NADPH fluorescence)
Type: biochemical
Conditions: % inhibition at a concentration of 100 μmolar
In short: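 In-house human FAS was preincubated with compound and NADPH for 15 min at room temperature in 0.1 M Tris pH 7.5 with EDTA, glutathione and BSA. Malonyl CoA and acetyl CoA (500 μM and 150 μM in the added mix) were then added for 60 min. IC50 came from time-zero-subtracted NADPH fluorescence (340/460 nm).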

T1 sequence (P49327 whole entry): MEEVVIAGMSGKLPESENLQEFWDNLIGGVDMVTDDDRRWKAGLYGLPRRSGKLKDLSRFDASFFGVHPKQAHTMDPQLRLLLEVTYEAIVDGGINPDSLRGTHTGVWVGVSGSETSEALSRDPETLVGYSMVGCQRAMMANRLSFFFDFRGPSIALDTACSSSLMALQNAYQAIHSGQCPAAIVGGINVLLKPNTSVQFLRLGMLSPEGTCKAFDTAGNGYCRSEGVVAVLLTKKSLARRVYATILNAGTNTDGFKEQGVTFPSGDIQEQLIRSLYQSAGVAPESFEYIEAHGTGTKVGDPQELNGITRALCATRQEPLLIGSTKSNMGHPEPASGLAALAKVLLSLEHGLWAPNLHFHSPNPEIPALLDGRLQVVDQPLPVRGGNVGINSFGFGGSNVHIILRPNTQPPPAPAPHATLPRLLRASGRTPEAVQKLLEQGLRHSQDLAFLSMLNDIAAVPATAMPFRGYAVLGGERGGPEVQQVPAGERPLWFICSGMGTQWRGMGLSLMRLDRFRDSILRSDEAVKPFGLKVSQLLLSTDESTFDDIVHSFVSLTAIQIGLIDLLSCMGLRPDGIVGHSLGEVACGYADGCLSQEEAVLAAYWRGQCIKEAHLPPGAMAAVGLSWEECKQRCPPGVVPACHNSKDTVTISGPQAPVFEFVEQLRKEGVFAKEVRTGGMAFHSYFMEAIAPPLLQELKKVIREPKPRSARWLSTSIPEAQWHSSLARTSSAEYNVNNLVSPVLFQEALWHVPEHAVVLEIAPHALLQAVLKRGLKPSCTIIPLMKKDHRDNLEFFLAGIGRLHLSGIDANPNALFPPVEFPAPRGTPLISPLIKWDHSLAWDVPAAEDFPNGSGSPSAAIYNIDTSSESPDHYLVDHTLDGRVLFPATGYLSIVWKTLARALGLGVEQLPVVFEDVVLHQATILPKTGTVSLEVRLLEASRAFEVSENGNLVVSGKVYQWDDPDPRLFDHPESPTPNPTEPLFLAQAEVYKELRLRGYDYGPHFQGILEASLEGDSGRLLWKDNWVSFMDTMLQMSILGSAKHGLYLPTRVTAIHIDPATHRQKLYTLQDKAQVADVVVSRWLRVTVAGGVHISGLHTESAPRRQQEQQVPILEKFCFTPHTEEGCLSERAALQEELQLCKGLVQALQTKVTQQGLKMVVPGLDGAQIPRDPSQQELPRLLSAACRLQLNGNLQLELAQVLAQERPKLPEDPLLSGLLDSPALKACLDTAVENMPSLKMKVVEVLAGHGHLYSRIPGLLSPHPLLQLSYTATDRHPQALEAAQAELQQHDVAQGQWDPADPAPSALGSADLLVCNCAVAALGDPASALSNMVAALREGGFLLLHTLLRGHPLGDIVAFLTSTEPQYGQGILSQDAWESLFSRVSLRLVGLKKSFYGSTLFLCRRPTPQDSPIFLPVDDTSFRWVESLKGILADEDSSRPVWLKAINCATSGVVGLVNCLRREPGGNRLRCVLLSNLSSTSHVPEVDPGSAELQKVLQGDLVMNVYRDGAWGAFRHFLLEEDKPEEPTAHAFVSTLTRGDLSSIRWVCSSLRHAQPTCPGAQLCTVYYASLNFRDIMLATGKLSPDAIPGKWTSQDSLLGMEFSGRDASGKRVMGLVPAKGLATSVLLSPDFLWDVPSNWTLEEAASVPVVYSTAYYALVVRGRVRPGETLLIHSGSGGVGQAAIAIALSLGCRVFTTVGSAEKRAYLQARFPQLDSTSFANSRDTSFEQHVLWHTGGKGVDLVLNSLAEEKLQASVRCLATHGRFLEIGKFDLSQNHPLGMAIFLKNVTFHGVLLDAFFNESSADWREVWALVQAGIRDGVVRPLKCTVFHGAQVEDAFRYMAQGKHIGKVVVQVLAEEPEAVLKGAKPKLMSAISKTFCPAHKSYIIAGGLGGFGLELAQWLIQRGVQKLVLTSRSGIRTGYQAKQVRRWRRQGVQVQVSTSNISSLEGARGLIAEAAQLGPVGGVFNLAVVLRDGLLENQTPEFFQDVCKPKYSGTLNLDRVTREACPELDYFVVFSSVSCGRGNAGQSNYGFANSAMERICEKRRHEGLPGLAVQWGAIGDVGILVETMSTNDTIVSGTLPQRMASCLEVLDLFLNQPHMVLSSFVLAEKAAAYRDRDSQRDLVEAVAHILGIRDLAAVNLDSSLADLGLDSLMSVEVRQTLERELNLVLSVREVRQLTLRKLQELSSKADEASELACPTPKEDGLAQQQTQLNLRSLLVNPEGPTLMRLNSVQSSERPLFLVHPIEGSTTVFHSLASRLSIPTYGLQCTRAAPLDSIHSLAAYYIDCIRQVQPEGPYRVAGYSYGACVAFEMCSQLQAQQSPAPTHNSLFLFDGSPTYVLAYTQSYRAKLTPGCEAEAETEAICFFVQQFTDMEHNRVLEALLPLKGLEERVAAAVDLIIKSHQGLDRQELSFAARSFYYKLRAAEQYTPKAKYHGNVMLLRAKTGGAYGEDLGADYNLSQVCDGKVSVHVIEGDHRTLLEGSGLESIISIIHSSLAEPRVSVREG

Structure (SMILES) | inhibition at 100 µM
Cc1ccc(C(=O)N2CCC(c3ccc(C#N)cc3)CC2)cc1NC(=O)NCc1ncc(F)cc1F [Example 367, 1-[5-[4-(4-cyanophenyl)piperidine-1-carbonyl]-2-methylphenyl]-3-[(3,5-difluoropyridin-2-yl)methyl]urea] | 107%
Cc1ccc(C(=O)N2CCC(c3ccc(C#N)cc3)CC2)cc1NC(=O)NC(C)c1ccccn1 (centres unmarked) [Example 368, 1-[5-[4-(4-cyanophenyl)piperidine-1-carbonyl]-2-methylphenyl]-3-(1-pyridin-2-ylethyl)urea] | 110%
Cc1ccc(C(=O)N2CCC(c3ccc(C#N)cc3)CC2)cc1NC(=O)NC(Cc1ccc(F)cc1)C(=O)O (centres unmarked) [Example 369, 2-[[5-[4-(4-cyanophenyl)piperidine-1-carbonyl]-2-methylphenyl]carbamoylamino]-3-(4-fluorophenyl)propanoic acid] | 88.5%
Cc1ccc(C(=O)N2CCC(c3ccc(C#N)cc3)CC2)cc1NC(=O)NC[C@@H](NC(=O)OC(C)(C)C)C(=O)O [Example 370, (2R)-3-[[5-[4-(4-cyanophenyl)piperidine-1-carbonyl]-2-methylphenyl]carbamoylamino]-2-[(2-methylpropan-2-yl)oxycarbonylamino]propanoic acid] | 106%
Cc1ccc(C(=O)N2CCC(c3ccc(C#N)cc3)CC2)cc1NC(=O)NC(C(=O)O)C(C)C (centres unmarked) [Example 371, 2-[[5-[4-(4-cyanophenyl)piperidine-1-carbonyl]-2-methylphenyl]carbamoylamino]-3-methylbutanoic acid] | 79%
Cc1ccc(C(=O)N2CCC(c3ccc(S(C)(=O)=O)cc3)CC2)cc1NC(=O)NC(C)C [Example 374, 1-[2-methyl-5-[4-(4-methylsulfonylphenyl)piperidine-1-carbonyl]phenyl]-3-propan-2-ylurea] | 71.8%
Cc1ccc(NC(=O)NC(C)(C)C)cc1C(=O)N1CCC(c2ccc(C#N)cc2)CC1 [Example 376, 3-tert-butyl-1-[3-[4-(4-cyanophenyl)piperidine-1-carbonyl]-4-methylphenyl]urea] | 68.4%
CC(C)NC(=O)Nc1ccc(F)c(C(=O)N2CCC(c3ccc(C#N)cc3)CC2)c1 [Example 377, 3-[3-[4-(4-cyanophenyl)piperidine-1-carbonyl]-4-fluorophenyl]-1-propan-2-ylurea] | 71.1%
Cc1ccc(NC(=O)NCc2ccc(C#N)cc2)cc1C(=O)N1CCC(c2ccc(C#N)cc2)CC1 [Example 378, 3-[(4-cyanophenyl)methyl]-1-[3-[4-(4-cyanophenyl)piperidine-1-carbonyl]-4-methylphenyl]urea] | 73.2%
Cc1ccc(NC(=O)NCc2ccncc2)cc1C(=O)N1CCC(c2ccc(C#N)cc2)CC1 [Example 379, 1-[3-[4-(4-cyanophenyl)piperidine-1-carbonyl]-4-methylphenyl]-3-(pyridin-4-ylmethyl)urea] | 73.3%
Cc1ccc(NC(=O)N(C)C)cc1C(=O)N1CCC(c2ccc(C#N)cc2)CC1 [Example 380, 3-[3-[4-(4-cyanophenyl)piperidine-1-carbonyl]-4-methylphenyl]-1,1-dimethylurea] | 74.8%
Cc1ccc(C(=O)N2CCC(c3ccc(C#N)cc3)CC2)cc1NC(=O)N(C)Cc1ccccc1 [Example 381, 1-benzyl-3-[5-[4-(4-cyanophenyl)piperidine-1-carbonyl]-2-methylphenyl]-1-methylurea] | 71.1%
Cc1ccc(C(=O)N2CCC(c3ccc(C#N)cc3)CC2)cc1NC(=O)NC1CONC1=O (centres unmarked) [Example 383, 1-[5-[4-(4-cyanophenyl)piperidine-1-carbonyl]-2-methylphenyl]-3-(3-oxo-1,2-oxazolidin-4-yl)urea] | 73.6%
C#CC(C)(C)NC(=O)Nc1cc(C(=O)N2CCC(c3ccc(C#N)cc3)CC2)ccc1C [Example 384, 1-[5-[4-(4-cyanophenyl)piperidine-1-carbonyl]-2-methylphenyl]-3-(2-methylbut-3-yn-2-yl)urea] | 97.6%
CCOC(=O)C(C)NC(=O)Nc1cc(C(=O)N2CCC(c3ccc(C#N)cc3)CC2)ccc1C (centres unmarked) [Example 385, Ethyl 2-[[5-[4-(4-cyanophenyl)piperidine-1-carbonyl]-2-methylphenyl]carbamoylamino]-propanoate] | 60.8%
CC(C)NC(=O)Nc1cc(C(=O)N2CCC(c3ccc(C#N)cc3)CC2)ccc1[S+](C)[O-] (centres unmarked) [Example 386, 3-[5-[4-(4-cyanophenyl)piperidine-1-carbonyl]-2-methylsulfinylphenyl]-1-propan-2-ylurea] | 67.4%
C[S+]([O-])c1ccc(C(=O)N2CCC(c3ccc(C#N)cc3)CC2)cc1NC(=O)NCc1ccccc1 (centres unmarked) [Example 387, 3-benzyl-1-[5-[4-(4-cyanophenyl)piperidine-1-carbonyl]-2-methylsulfinylphenyl]urea] | 72.9%
Cc1ccc(C(=O)N2CCC(c3ccc(C#N)cc3)CC2)cc1NC(=O)NC1CCCC1C(=O)O (centres unmarked) [Example 388, 2-[[5-[4-(4-cyanophenyl)piperidine-1-carbonyl]-2-methylphenyl]carbamoylamino]-cyclopentane-1-carboxylic acid] | 83.9%

Structure (SMILES) | inhibition at 100 µM
Cc1ccc(C(=O)N2CCC(c3ccc(C#N)cc3)CC2)cc1NC(=O)NC1(C)CC1 [Example 389, 1-[5-[4-(4-cyanophenyl)piperidine-1-carbonyl]-2-methylphenyl]-3-(1-methylcyclopropyl)-urea] | 78.6%
CC(=O)N1CCCC(NC(=O)Nc2cc(C(=O)N3CCC(c4ccc(C#N)cc4)CC3)ccc2C)C1 (centres unmarked) [Example 390, 3-(1-acetylpiperidin-3-yl)-1-[5-[4-(4-cyanophenyl)piperidine-1-carbonyl]-2-methylphenyl]urea] | 90.6%
Cc1ccc(C(=O)N2CCC(c3ccccc3)CC2)cc1NC(=O)NC(C)C [Example 391, 1-[2-methyl-5-(4-phenylpiperidine-1-carbonyl)phenyl]-3-propan-2-ylurea] | 71%
Cc1ccc(C(=O)N2CCC(c3ccc(C#N)cc3)CC2)cc1NC(=O)N(C)CCO [Example 392, 3-[5-[4-(4-cyanophenyl)piperidine-1-carbonyl]-2-methylphenyl]-1-(2-hydroxyethyl)-1-methylurea] | 76.3%
Cc1ccc(C(=O)N2CCC(c3ccc(C#N)cc3)CC2)cc1NC(=O)N(C)C1CCN(C)CC1 [Example 393, 3-[5-[4-(4-cyanophenyl)piperidine-1-carbonyl]-2-methylphenyl]-1-methyl-1-(1-methylpiperidin-4-yl)urea] | 65.8%
Cc1ccc(C(=O)N2CCC(c3ccc(C#N)cc3)CC2)cc1NC(=O)N(C)CCN(C)C [Example 394, 3-[5-[4-(4-cyanophenyl)piperidine-1-carbonyl]-2-methylphenyl]-1-(2-dimethylaminoethyl)-1-methylurea] | 68.7%
Cc1ccc(C(=O)N2CCC(c3ccc(C#N)cc3)CC2)cc1NC(=O)N(CCO)C(C)C [Example 395, 3-[5-[4-(4-cyanophenyl)piperidine-1-carbonyl]-2-methylphenyl]-1-(2-hydroxyethyl)-1-propan-2-ylurea] | 71.6%
Cc1ccc(C(=O)N2CCC(c3ccc(C#N)cc3)CC2)cc1NC(=O)N(C)C1CCOCC1 [Example 396, 3-[5-[4-(4-cyanophenyl)piperidine-1-carbonyl]-2-methylphenyl]-1-methyl-1-(oxan-4-yl)urea] | 62.9%
CCCN(C(=O)Nc1cc(C(=O)N2CCC(c3ccc(C#N)cc3)CC2)ccc1C)C1CCS(=O)(=O)C1 (centres unmarked) [Example 397, 3-[5-[4-(4-cyanophenyl)piperidine-1-carbonyl]-2-methylphenyl]-1-(1,1-dioxothiolan-3-yl)-1-propylurea] | 63.7%
Cc1ccc(C(=O)N2CCC(c3ccc(C#N)cc3)CC2)cc1NC(=O)N(C)CC(=O)NC(C)C [Example 398, 2-[[5-[4-(4-cyanophenyl)piperidine-1-carbonyl]-2-methylphenyl]carbamoyl-methylamino]-N-propan-2-ylacetamide] | 66.3%
CCOCC1CCCN1C(=O)Nc1cc(C(=O)N2CCC(c3ccc(C#N)cc3)CC2)ccc1C (centres unmarked) [Example 399, N-[5-[4-(4-cyanophenyl)piperidine-1-carbonyl]-2-methylphenyl]-2-(ethoxymethyl)pyrrolidine-1-carboxamide] | 73.3%
CNCCNC(=O)Nc1cc(C(=O)N2CCC(c3ccc(F)cc3)CC2)ccc1C [Example 400, 1-[5-[4-(4-fluorophenyl)piperidine-1-carbonyl]-2-methylphenyl]-3-(2-methylaminoethyl)urea] | 66.7%
CC(=O)NCCN(C)C(=O)Nc1cc(C(=O)N2CCC(c3ccc(C#N)cc3)CC2)ccc1C [Example 401, N-[2-[[5-[4-(4-cyanophenyl)piperidine-1-carbonyl]-2-methylphenyl]carbamoyl-methylamino]ethyl]acetamide] | 65.7%
CCS(=O)(=O)NCCN(C)C(=O)Nc1cc(C(=O)N2CCC(c3ccc(C#N)cc3)CC2)ccc1C [Example 402, 3-[5-[4-(4-cyanophenyl)piperidine-1-carbonyl]-2-methylphenyl]-1-[2-(ethylsulfonylamino)ethyl]-1-methylurea] | 64.6%
CC(C)NC(=O)Nc1cc(C(=O)N2CCC(c3ccc(C#N)cc3)CC2)ccc1CS(C)(=O)=O [Example 403, 3-[5-[4-(4-cyanophenyl)piperidine-1-carbonyl]-2-(methylsulfonylmethyl)phenyl]-1-propan-2-ylurea] | 79.9%
Cc1ccc(NC(=O)NC(C)C)cc1C(=O)N1CCC(c2ccc(C#N)cc2)CC1 [Example 404, 1-[3-[4-(4-cyanophenyl)piperidine-1-carbonyl]-4-methylphenyl]-3-propan-2-ylurea] | 76.5%
CSc1ccc(NC(=O)NC(C)C)cc1C(=O)N1CCC(c2ccc(C#N)cc2)CC1 [Example 405, 3-[3-[4-(4-cyanophenyl)piperidine-1-carbonyl]-4-methylsulfanylphenyl]-1-propan-2-ylurea] | 66.8%
